# From BindingDB's records for patent US20240034729 (Wuhan Ll Science and Technology Development, 2024)
# pIC50: −log10 of the molar value.
# Molecular target: T1, P2X purinoceptor 3 (Homo sapiens, UniProt P56373)
# T1 sequence (P56373 whole entry): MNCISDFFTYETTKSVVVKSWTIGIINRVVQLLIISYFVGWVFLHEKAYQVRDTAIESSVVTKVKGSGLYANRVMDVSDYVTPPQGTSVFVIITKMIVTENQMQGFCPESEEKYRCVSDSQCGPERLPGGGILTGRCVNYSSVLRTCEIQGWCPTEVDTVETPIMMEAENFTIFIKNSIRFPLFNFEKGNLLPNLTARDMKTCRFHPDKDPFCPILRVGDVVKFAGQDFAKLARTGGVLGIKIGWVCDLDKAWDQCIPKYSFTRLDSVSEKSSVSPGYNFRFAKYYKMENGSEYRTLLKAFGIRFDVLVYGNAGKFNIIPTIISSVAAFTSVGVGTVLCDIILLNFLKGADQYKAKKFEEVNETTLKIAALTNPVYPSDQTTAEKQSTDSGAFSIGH
# Assay: Evaluation of In Vitro Biological Activity
# Description: Each well was added with 10 μL of test compound (which was dissolved in DMSO at a concentration of 10 mM and serially diluted with buffer) or vehicle, and then was left to equilibrate for 30 min at room temperature.
row,Compound,pIC50
1,"COC(=O)N1CCO[C@@H](Cc2c(-c3c(F)cc(NC(=O)/C=C/C(N)=O)cc3F)nc3cc(C)ccn23)C1 [US20240034729, Compound 29]",> 8.00
2,"COC(=O)N1CCO[C@@H](Cc2c(-c3c(F)cc(NC(=O)C4(C#N)CC4)cc3F)nc3cc(C)ccn23)C1 [US20240034729, Compound 89]",> 7.00
3,"COC(=O)N1CCO[C@@H](Cc2c(-c3c(F)cc(CC(N)=O)cc3F)nc3cc(C)ccn23)C1 [US20240034729, Compound 63]",> 6.00
4,"CCC(=O)c1ccn(-c2cc(F)c(-c3nc4cc(C)ccn4c3C[C@H]3CN(C(=O)OC)CCO3)c(F)c2)n1 [US20240034729, Compound 164]",> 7.00
5,"COC(=O)N1CCO[C@@H](Cc2c(-c3c(F)cc(-c4nc(C5(C(N)=O)CC5)c[nH]4)cc3F)nc3cc(C)ccn23)C1 [US20240034729, Compound 133]",> 7.00
6,"COC(=O)N1CCO[C@@H](Cc2c(-c3c(F)cc(-c4ncccn4)cc3F)nc3cc(C)ccn23)C1 [US20240034729, Compound 18]",> 6.00
7,"COC(=O)N1CCO[C@@H](Cc2c(-c3c(F)cc(C#N)cc3F)nc3cc(C)ccn23)C1 [US20240034729, Compound 6]",> 6.00
8,"COC(=O)N1CCO[C@@H](Cc2c(-c3c(F)cc(-n4cnnn4)cc3F)nc3cc(C)ccn23)C1 [US20240034729, Compound 58]",> 8.00
9,"COC(=O)N1CCO[C@@H](Cc2c(-c3c(F)cc(NC4CCC(=O)C4)cc3F)nc3cc(C)ccn23)C1 (some centres undefined) [US20240034729, Compound 79]",> 7.00
10,"COC(=O)N1CCO[C@@H](Cc2c(-c3c(F)cc(-c4nn[nH]n4)cc3F)nc3cc(C)ccn23)C1 [US20240034729, Compound 104]",> 6.00
11,"COC(=O)N1CCO[C@@H](Cc2c(-c3c(F)cc(NC(=O)C4(C(=O)OC)CC4)cc3F)nc3cc(C)ccn23)C1 [US20240034729, Compound 97]",> 6.00
12,"COC(=O)N1CCO[C@@H](Cc2c(-c3c(F)cc(-n4cnc(C(N)=O)c4)cc3F)nc3cc(C)ccn23)C1 [US20240034729, Compound 110]",> 7.00
13,"COC(=O)N1CCO[C@@H](Cc2c(-c3c(F)cc(N4CC=CC4=O)cc3F)nc3cc(C)ccn23)C1 [US20240034729, Compound 169]",> 8.00
14,"COC(=O)N1CCO[C@@H](Cc2c(-c3c(F)cc(-c4ccc(O)cn4)cc3F)nc3cc(C)ccn23)C1 [US20240034729, Compound 147]",> 7.00
15,"COC(=O)N1CCO[C@@H](Cc2c(-c3c(F)cc(-c4nc(C5(C#N)CC5)c[nH]4)cc3F)nc3cc(C)ccn23)C1 [US20240034729, Compound 144]",> 7.00
16,"COC(=O)N1CCO[C@@H](Cc2c(-c3c(F)cc(-c4nc(C(C)(C)O)co4)cc3F)nc3cc(C)ccn23)C1 [US20240034729, Compound 119]",> 7.00
17,"CCC(=O)N1CCO[C@@H](Cc2c(-c3c(F)cc(-c4ncc[nH]4)cc3F)nc3cc(C)ccn23)C1 [US20240034729, Compound 52]",> 8.00
18,"COC(=O)N1CCO[C@@H](Cc2c(-c3c(F)cc(-c4nc(C5(C(=O)O)CC5)c[nH]4)cc3F)nc3cc(C)ccn23)C1 [US20240034729, Compound 59]",> 8.00
19,"COC(=O)N1CCO[C@@H](Cc2c(-c3c(F)cc(-c4ccc(C(N)=O)cn4)cc3F)nc3cc(C)ccn23)C1 [US20240034729, Compound 146]",> 6.00
